According to US10428151B2, “Treatment of hematologic malignancies with an anti-CXCR4 antibody” (BRISTOL-MYERS SQUIBB COMPANY, priority 2011, dated 2019):

Experiments:
Ramos cells = experiment: Ramos cell proliferation, Cell-Titer-Glo; assay type: cell-based, human; details: 40 nM; 72 hours; compared to isotype control
Experimental: Ramos cells were suspended at 1×10^5 cells/mL in growth media, incubated with the relevant antibodies, including isotype controls, and other test agents and cultured for 72 hours at 37° C. Cell-Titer-Glo (Promega) was added to wells, mixed, and incubated at room temperature for 10 minutes. The plate was read on a GloMax Luminometer (Promega).

parental R1610 cells = experiment: Apoptosis of parental R1610 cells, Annexin V-FITC/PI; assay type: cell-based, hamster; details: 24 hours
Experimental: MDX-1338 or isotype control were added to CXCR4-transfected cells (A) or R1610 parental cells (B) and stained with Annexin V-FITC and PI. The percentages of cells that were positive for Annexin V only or doubly positive for both Annexin V and PI double positive are illustrated.
The percent of cells that are positive for Annexin V only or both Annexin V and PI double positive was determined.

Ramos tumor cells = experiment: Ramos cell proliferation, 3H-thymidine incorporation; assay type: cell-based, human; details: 10^−3 to 300 nM; 72 hours
Experimental: In this example, the ability of the anti-CXCR4 human antibodies to inhibit proliferation of Ramos tumor cells (a human Burkitt's lymphoma cell line) in vitro was examined. […] The cells were incubated with antibody for 72 hours, with ^3H-thymidine being added for the final 24 hours of incubation to allow for monitoring of cell proliferation. Following the incubation, incorporation of ^3H-thymidine by the cells was measured by standard techniques. The results are shown in the graph of FIG. 11A.

BMS-936564: fully human anti-CXCR4 monoclonal antibody; VH SEQ ID NO: 25, VL SEQ ID NO: 29
maximum inhibition of Ramos cell proliferation (Ramos cells): about 50%
apoptosis of parental R1610 cells (parental R1610 cells): did not exhibit apoptosis
inhibition of Ramos cell proliferation (3H-thymidine incorporation) (Ramos tumor cells): able to inhibit Ramos cell proliferation
